Assay results reported in patent US10562842B2, “Use of polyaminoisoprenyl derivatives in antibiotic or antiseptic treatment” (UNIVERSITE D'AIX-MARSEILLE, priority 2011, dated 2020).
Peptide text beside a SMILES is read from it. * marks the point of attachment. βNA = c1ccc2cc(N*)ccc2c1

Columns and labels:
[1] = Tolerance in mice, intraperitoneal route; assay type: in vivo; conditions: for tissue anomaly (liver, lung, kidney, intestine): day 2, Compound 5 8.8 mg/kg, 8 1.46 mg/kg, 11 0.45 mg/kg, 14 0.35 mg/kg, 12 6.3 mg/kg
Method: Mice were administered with increasing doses of test compounds by intraperitoneal route.
The mice were sacrificed on day 2 after the injection of the test compound and autopsied. No morphological anomaly was observed. Liver, lung, kidney and intestine of each mouse were fixed and analysed.

Ea289ΔacrB (Ea294) = test: MIC of antibiotics ± test compound (MIC ratio), micro-broth dilution; assay type: cell-based, Enterobacter aerogenes; conditions: compound at MIC/4, Set 1
Method: (§1) The Enterobacter aerogenes Ea289 strain is a Kans derivative of the MDR clinical isolate Ea27, the acrB mutant, EaEP294, was constructed from Ea289. Multidrug-resistant Salmonella enterica serovar Typhimurium DT104 strains (BN10055) was isolated from cattle in France, the isogenic acrB derivative mutant, BN10055ΔacrB, was constructed from BN10055. Strains were maintained at −80° C. in 25% (v/v) glycerol for cryoprotection. Bacteria were routinely grown in Mueller-Hinton (MH) broth at 37° C.
(§2) Susceptibilities to antibiotics and compounds were determined in microplates by broth dilution method, as previously described. Minimal Inhibitory Concentrations (MICs) were determined with an inoculum of 10^6 CFU in 200 μL of MH broth containing two-fold serial dilutions of each drug. […] All MIC determinations were repeated at least three times in independent experiments.
(§3) […] All MIC determinations were repeated at least three times in independent experiments. The MIC ratio corresponds to the ratio of the MIC of an antibiotic alone to the MIC of the same antibiotic in the presence of the tested compound (at MIC/4).
(§4) For reminder, the MIC ratio corresponds to the ratio of the MIC of the assessed antibiotic alone to the MIC of the same antibiotic in the presence of the tested compound (at MIC/4).

[2] = test system: Enterobacter aerogenes MDR Ea289; test: as above; assay type: cell-based; conditions: compound at MIC/4, Set 2; for MIC ratio (*) on Ea289 Dox: doxycycline; for MIC ratio (*) on Ea289 Nal: nalidixic acid
[3] = test system: Salmonella Thyphimurium MDR BN10055; test: as above; assay type: cell-based, Salmonella enterica serovar Typhimurium; conditions: compound at MIC/4; for MIC ratio (*) on BN10055 Chl: chloramphenicol; for MIC ratio (*) on BN10055 Dox: doxycycline; for MIC ratio (*) on BN10055 Nal: nalidixic acid
Method: as §1, §2, §3, §4

BN10055ΔacrB [4] = test: as above; assay type: cell-based, Salmonella enterica serovar Typhimurium; conditions: compound at MIC/4, Set 1
Method: as §1, §2, §3, §4

[5] = test system: Enterobacter aerogenes MDR Ea289; test: as above; assay type: cell-based; conditions: for Effective concentration (mM) for a MIC ratio of chloramphenicol ≥ 8 on Ea289 / MIC ratio (*) on Ea289 Chl: chloramphenicol
Method: The process consists of treating the MDR bacteria with the compounds of the invention in the presence of antibiotics.
as §2
The MICs of chloramphenicol±test compounds (MIC/4) were determined by the micro-broth dilution method (9). All MIC determinations were repeated at least three times in independent experiments. The MIC ratio corresponds to the ratio of the MIC of an antibiotic alone to the MIC of the same antibiotic in the presence of the tested compound (at MIC/4).
The compounds listed in Table 2 were tested for their ability to decrease the chloramphenicol MIC of Ea289, an Enterobacter aerogenes MDR strain (1). Each compound was first tested at MIC/4. […] All MIC determinations were repeated at least three times in independent experiments.
as §4

CHO cells = test: Toxicity on CHO cultured cells; assay type: cell-based; conditions: killing of 50% of the CHO cells after 24 hours of incubation
Method: The toxicity of each compound was determined on CHO cultured cells. Incubation of CHO cells was performed with serial dilution of compounds. The compounds are either solubilized in DMSO or in PBS. The IC50 corresponds to the concentration of compounds leading to a killing of 50% of the CHO cells after 24 hours of incubation.

E. aerogenes ATCC13048 = test: Susceptibility of Gram-negative strains to macrolides in the presence of test compound; assay type: cell-based, Enterobacter aerogenes
[6] = test system: S. enterica Thyphimurium ATCC13311; test: as above; assay type: cell-based, Salmonella enterica Typhimurium; set-up: key to the marks not given beside the values
A. Baumannii ATCC19606 = test: as above; assay type: cell-based, Acinetobacter baumannii; set-up: Susceptibility to Clarithomycin, A. Baumannii ATCC19606: key to the marks not given beside the values
E. Coli AG100 = test: as above; assay type: cell-based, Escherichia coli; set-up: Susceptibility to Clarithomycin, E. Coli AG100 / Susceptibility to Erythromycin, E. Coli AG100: key to the marks not given beside the values
Ea289 = test: MIC by broth dilution (intrinsic MIC); assay type: cell-based, Enterobacter aerogenes; conditions: antibiotic alone
Method: as §2

Ea294 = test: MIC by broth dilution (intrinsic MIC); assay type: cell-based, Enterobacter aerogenes; conditions: antibiotic alone
Method: as §2

BN10055 = test: MIC by broth dilution (intrinsic MIC); assay type: cell-based, Salmonella enterica; conditions: antibiotic alone
Method: as §2

BN10055ΔacrB [7] = test: MIC by broth dilution (intrinsic MIC); assay type: cell-based, Salmonella enterica; conditions: antibiotic alone
Method: as §2

With `CC(C)=CCC/C(C)=C/C(=O)NCCCN(CCCN)CCCN` [Compound 5] the “tissue observation at the highest dose” value ([1]; 35.25 mg/kg) was “slight vascular modifications” and the “tissue anomaly (liver, lung, kidney, intestine)” value (from here on “tissue anomaly”) [1] was “no significant tissue anomaly”.
In the case of `CC(C)=CCC/C(C)=C/CC/C(C)=C/CNCCCNCCCCNCCCN` [Compound 8, {3-[4-(3-Amino-propylamino)-butylamino]-propyl}-(3,7,11-trimethyl-dodeca-2,6,10-trienyl)-amine], the “MIC ratio(*) on Ea289ΔacrB Chl” value (Ea289ΔacrB (Ea294); chloramphenicol) was 2, the “MIC ratio(*) on Ea289ΔacrB Ery” value (Ea289ΔacrB (Ea294); erythromycin) was 16 and the “MIC ratio(*) on Ea289ΔacrB Nal” value (Ea289ΔacrB (Ea294); nalidixic acid) was 4. The “MIC ratio (*) on Ea289 Dox” value [2] was 16, the “MIC ratio (*) on Ea289 Nal” value [2] was 16-32 and the “MIC ratio (*) on BN10055 Chl” value ([3]; Set 1) was greater than 16. For the same compound, the “MIC ratio (*) on BN10055 Chl” value ([3]; Set 2) was 16-32, the “MIC ratio (*) on BN10055 Dox” value ([3]; Set 2) was 8 and the “MIC ratio(*) on BN10055 Ery” value ([3]; erythromycin, Set 1) was 8. For the same compound, the “MIC ratio (*) on BN10055 Nal” value ([3]; Set 1) was 64, the “MIC ratio (*) on BN10055 Nal” value ([3]; Set 2) was 64 and the “MIC ratio(*) on BN10055ΔacrB Chl” value (BN10055ΔacrB [4]; chloramphenicol) was 4. For the same compound, the “MIC ratio(*) on BN10055ΔacrB Ery” value (BN10055ΔacrB [4]; erythromycin) was 8, the “MIC ratio(*) on BN10055ΔacrB Nal” value (BN10055ΔacrB [4]; nalidixic acid) was 4 and the “Effective concentration (mM) for a MIC ratio of chloramphenicol ≥ 8 on Ea289” value [5] was 0.0078 mM. For the same compound, the “efficient concentration, times lower than the control PAβN” value ([5]; chloramphenicol MIC ratio of 8 on Ea289) was “about 4.9 times”, the “activity, effective concentration compared with PAβN to reach a MIC ratio of 8” value ([5]; chloramphenicol on Ea289) was “strong activity” and the “MIC ratio (*) on Ea289 Chl” value ([5]; compound at MIC/4, Set 1) was 8-16. The “MIC ratio (*) on Ea289 Chl” value ([5]; compound at MIC/4, Set 2) was 8-16, the “MIC ratio(*) on Ea289 Ery” value ([5]; erythromycin, compound at MIC/4, Set 1) was 32 and the “MIC ratio (*) on Ea289 Nal” value ([5]; nalidixic acid, compound at MIC/4, Set 1) was greater than 16. The IC50 (CHO cells; Cricetulus griseus) was 0.726 mM and the “tissue anomaly” value [1] was “no significant tissue anomaly”.
In the case of `CC(C)=CCC/C(C)=C/CNCCCN` [Compound 12, (3,7-Dimethyl-octa-2,6-dienyl)-propane-1,3-diamine], the “MIC ratio (*) on Ea289 Dox” value [2] was 16, the “MIC ratio (*) on Ea289 Nal” value [2] was 4-8 and the “MIC ratio (*) on BN10055 Chl” value ([3]; Set 2) was 8. The “MIC ratio (*) on BN10055 Dox” value ([3]; Set 2) was 16, the “MIC ratio (*) on BN10055 Nal” value ([3]; Set 2) was 32 and the “MIC ratio (*) on Ea289 Chl” value ([5]; compound at MIC/4, Set 2) was 16. For the same compound, the “tissue anomaly” value [1] was “no significant tissue anomaly”.
With `N=C(N)NCCC[C@H](NC(=O)[C@@H](N)Cc1ccccc1)C(=O)Nc1ccc2ccccc2c1` [PAβN, Phenyl-Arginine β-Naphtylamide] (H-Phe-Arg-βNA) the “Susceptibility to Clarithomycin, E. aerogenes ATCC13048” value (E. aerogenes ATCC13048) was “+”, the “Susceptibility to Erythromycin, E. aerogenes ATCC13048” value (E. aerogenes ATCC13048) was “+” and the “Susceptibility to Spiramycin, E. aerogenes ATCC13048” value (E. aerogenes ATCC13048) was “+”. The “Susceptibility to Clarithomycin, S. enterica Thyphimurium ATCC13311” value [6] was “++”, the “Susceptibility to Erythromycin, S. enterica Thyphimurium ATCC13311” value [6] was “++” and the “Susceptibility to Spiramycin, S. enterica Thyphimurium ATCC13311” value [6] was “++”. The “Effective concentration (mM) for a MIC ratio of chloramphenicol ≥ 8 on Ea289” value [5] was 0.038 mM, the IC50 (CHO cells) was greater than 5 mM and the “Susceptibility to Clarithomycin, A. Baumannii ATCC19606” value (A. Baumannii ATCC19606) was “++”. For the same compound, the “Susceptibility to Erythromycin, A. Baumannii ATCC19606” value (A. Baumannii ATCC19606) was “+”, the “Susceptibility to Spiramycin, A. Baumannii ATCC19606” value (A. Baumannii ATCC19606) was “+” and the “Susceptibility to Clarithomycin, E. Coli AG100” value (E. Coli AG100) was “++”. The “Susceptibility to Erythromycin, E. Coli AG100” value (E. Coli AG100) was “++” and the “Susceptibility to Spiramycin, E. Coli AG100” value (E. Coli AG100) was “+”.
For `O=C(N[C@H](CO)[C@H](O)c1ccc([N+](=O)[O-])cc1)C(Cl)Cl` [Chloramphenicol, reference compound], the “Chl-MIC: Chloramphenicol Minimal Inhibitory Concentration, Ea289” value (Ea289) was 1024 µg/mL, the “Chl-MIC: Chloramphenicol Minimal Inhibitory Concentration, Ea294” value (Ea294) was 64 µg/mL and the “Chl-MIC: Chloramphenicol Minimal Inhibitory Concentration, BN10055” value (BN10055) was 256 µg/mL. The “Chl-MIC: Chloramphenicol Minimal Inhibitory Concentration, BN10055ΔacrB” value (BN10055ΔacrB [7]) was 16 µg/mL.
